How the values were obtained:
[1] = system: amyloid precursor protein (APP); test: Amyloid precursor protein level in brain, capillary-phoresis; assay type: in vivo, mouse; settings: treated 3xTg-AD mice; controls = 100%; not significantly changed vs untreated 3xTg
Source text: Capillary-phoresis immunoassay via ProteinSimple®: Quantification of all protein targets was achieved using Simple Western analysis in a Jess™ apparatus per the manufacturer's protocol (ProteinSimple, Bio-techne, Minneapolis, MN). Protein was extracted from dissected tissue in an extraction buffer consisting of T-PER® Tissue Protein Extraction Reagent (Cat. No. 78510, Thermo Fischer Scientific, Waltham, MA) and Halt™ Protease Inhibitor Cocktail (Cat. No. 87785, Thermo Fischer Scientific, Waltham, MA). Following homogenization and centrifugation (10,000×g, 5 min, 4° C.), protein concentration was determined in tissue protein supernatant samples using DC Protein Assay (Cat. No. 5000112, Bio-Rad Laboratories, Hercules, California) according to manufacturer instructions. […] Antibody diluent (ProteinSimple, Bio-techne, Minneapolis, MN) was used for all antibody dilutions as follows: PRMT4 (1:50, RRID: AB_2068436), PRMT6 (1:100, Cell Signaling Technology cat. 14641), eNOS (1:200, RRID: AB_10850618), nNOS (1:100, RRID: AB_2152488), iNOS (1:100, RRID: AB_10000625), DDAH2 (1:50, RRID: AB_2640442) Antibodies were detected using HRP-conjugated secondary anti-rabbit, and -mouse. Relative protein levels were calculated by measuring the area under the peak of a chemiluminescent chromatogram and normalized to total capillary chemiluminescence for a given sample. […]

3-nitrotyrosine = test: 3-Nitrotyrosine ELISA of brain lysate; assay type: in vivo, mouse; settings: combined cortex and hippocampus lysate
Protocol: OxiSelect™ 3-Nitrotyrosine ELISA: Protein was extracted from dissected tissue in an extraction buffer consisting of T-PER® Tissue Protein Extraction Reagent (Cat. No. 78510, Thermo Fischer Scientific, Waltham, MA) and Halt™ Protease Inhibitor Cocktail (Cat. No. 87785, Thermo Fischer Scientific, Waltham, MA). Following homogenization and centrifugation (10,000×g, 5 min, 4° C.), protein concentration was determined in the supernatant using DC Protein Assay (Cat. No. 5000112, Bio-Rad Laboratories, Hercules, California) according to manufacturer instructions. Levels of 3-Nitrotyrosine were determined using OxiSelect™ 3-Nitrotyrosine ELISA (Cat. No. STA-305, Cell Biolabs Inc., San Diego, CA). Briefly, 50 μL of protein lysate was added to a pre-coated 96-well plate and incubated at room temperature (20° C.) for 10 min on an orbital shaker. 50 μL of anti-nitrotyrosine antibody (1:1000, Cell Biolabs Inc., San Diego, CA) was added to each well and plate was incubated for 1 hr at 20° C. Wells were washed 3 times using assay wash buffer, and 100 μL of secondary antibody-enzyme conjugate (1:1000, Cell Biolabs Inc., San Diego, CA) was added to each well. Plate was then incubated for 1 hr at 20° C. on an orbital shaker. […] The standard curve was provided by the manufacturer, and all sample concentrations were determined from the standard curve values. Changes in absorbance were measured at 450 nm. […]

C57 mice = test: Neurovascular coupling: microvessel diameter, two-photon laser scanning microscopy, C57 mice; assay type: in vivo, mouse; settings: decreased PRMT4 via TP-064/PRMT4-AAV
C57BL/6J mice = test: Regional cortical cerebral blood flow, laser speckle contrast imaging, C57 mice; assay type: in vivo, mouse
Protocol: Surgical Preparation and Anesthetic Procedure: Mice were anesthetized with 4% isoflurane (Cat. No. 21295098, Patterson Veterinary, Greeley, CO) and a mixture of O2 and N2O (30:70) via mask. Hair was shaved at the site of surgery (from the nape up to the eyes). Body temperature was maintained at 37° C. by a rodent heating pad with anal probe as a temperature reference (ThermoStar, RWD Life Science, San Diego, CA). Anesthesia was maintained by lowering isoflurane from 4% to 1%.
Thinned-skull preparation: Mice were placed in a stereotaxic frame to stabilize the skull and artificial tears (Patterson Veterinary, Greeley, CO) was applied in each eye. Dissection scissors and forceps were used to reveal the skull. A high-speed dental drill (RWD Life Science, San Diego, CA) was used to thin the skull creating a small window (1 mm in diameter) approximately 2 mm rostral and 1 mm lateral to the lambda, with saline irrigation to prevent overheating of the skull tissue. Laser speckle contrast imaging or two-photon laser scanning microscopy analyses were conducted following this preparation.
Laser speckle contrast imaging: Cerebral microvasculature was imaged by utilizing the thin skull preparation method. After thinning the skull, the mouse was placed in a stereotaxic apparatus. […]

[2] = Toxicity: blood counts, liver enzymes, kidney function; assay type: in vivo, mouse
Source text: The inventors have on-going studies to screen for major organ toxicity. Plasma liver enzymes (ALT/AST) and kidney function were normal in TP-064-treated mice.

[3] = system: methylation of H3 (1-25) and MED12; settings: in cell; cited from earlier work

Compound: CNCCN1CCC(c2cc(CN(C)C(=O)c3cccc(Oc4ccccc4)c3)ccn2)CC1 [TP-064, N-Methyl-N-((2-(1-(2-(methylamino)ethyl)piperidin-4-yl)pyridin-4-yl)methyl)-3-phenoxybenzamide]
- APP level in cortex [1]: 801%±36.3
- APP level in hippocampus [1]: 1040%±31.1
- 3-nitrotyrosine level (3-nitrotyrosine; 3xTg-AD mice): 110 ± 27.2 µM
- 3-nitrotyrosine level (3-nitrotyrosine; C57BL/6J mice): 86.9 ± 7.71 µM
- vascular diameters (C57 mice): did not affect
- perfusion (C57BL/6J mice; C57 mice, decreased PRMT4 via TP-064/PRMT4-AAV): did not affect
- regional cortical CBF (C57BL/6J mice; treated C57BL/6J mice, 30 mg/kg, IP, 7 days): 98.3±10.1%
- complete blood counts ([2]; mice treated 7 days): no abnormalities
- Plasma liver enzymes (ALT/AST) ([2]; treated mice): normal
- kidney function ([2]; treated mice): normal
- methylation of H3 (1-25) and MED12 [3]: inhibits

Source: patent publication US20240238268A1, “TREATMENTS AND METHODS FOR TREATING ALZHEIMER'S DISEASE” (Board of Supervisors of Louisiana State University and …, priority 2021, published 2024)
